# Activity calls are given as the source filed them.
# Columns and labels:
# Estrogen receptor beta [1] = target: T1, Estrogen receptor beta (Homo sapiens, UniProt Q92731); experiment: blockers of SRC-3 recruitment to ERβ – biochemical, ELISA, streptavidin-HRP readout, orthogonal assay, confirmation (AID 1060)
# Estrogen receptor = target: T2, Estrogen receptor (Homo sapiens, UniProt P03372);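 also: potency for inhibiting coactivator peptide recruitment to the receptor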
# T2 sequence (P03372 whole entry): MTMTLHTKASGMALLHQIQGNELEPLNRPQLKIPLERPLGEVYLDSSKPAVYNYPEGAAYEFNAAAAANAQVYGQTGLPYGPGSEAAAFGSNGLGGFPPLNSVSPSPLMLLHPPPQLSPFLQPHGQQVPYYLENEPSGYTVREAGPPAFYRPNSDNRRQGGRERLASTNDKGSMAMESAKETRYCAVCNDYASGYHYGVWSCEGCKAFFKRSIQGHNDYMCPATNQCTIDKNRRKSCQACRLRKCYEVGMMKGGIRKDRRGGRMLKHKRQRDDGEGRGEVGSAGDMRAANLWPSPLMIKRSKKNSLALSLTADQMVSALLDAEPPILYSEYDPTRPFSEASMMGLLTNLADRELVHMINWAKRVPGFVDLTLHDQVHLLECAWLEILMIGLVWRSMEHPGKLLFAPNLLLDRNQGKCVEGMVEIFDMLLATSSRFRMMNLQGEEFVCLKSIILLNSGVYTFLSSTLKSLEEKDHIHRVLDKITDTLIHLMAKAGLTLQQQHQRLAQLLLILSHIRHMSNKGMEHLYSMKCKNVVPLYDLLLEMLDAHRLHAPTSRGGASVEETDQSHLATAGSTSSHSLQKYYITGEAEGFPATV
# Estrogen receptor beta [2] = target: T1, Estrogen receptor beta
# [3] = target: T3, Carboxy-terminal domain RNA polymerase II polypeptide A small phosphatase 1 (Homo sapiens, UniProt Q9GZU7); experiment: CTDSP1 inhibitors, concentration-response, biochemical, absorbance readout, ultra-high-throughput screen actives (AID 540297); type: functional
# T3 sequence (Q9GZU7 whole entry): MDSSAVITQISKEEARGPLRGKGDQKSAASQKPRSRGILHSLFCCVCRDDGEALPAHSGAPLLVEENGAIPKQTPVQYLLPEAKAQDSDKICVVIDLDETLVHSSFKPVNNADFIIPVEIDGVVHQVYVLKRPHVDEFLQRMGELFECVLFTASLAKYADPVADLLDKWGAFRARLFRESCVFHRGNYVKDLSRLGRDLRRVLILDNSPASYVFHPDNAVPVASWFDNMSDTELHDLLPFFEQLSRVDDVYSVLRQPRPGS
# Caspase-6 = target: T4, Caspase-6 (Homo sapiens, UniProt P55212); experiment: inhibition of CASP6 peptide cleavage – biochemical, VEID-R110 fluorescence, cherry-pick, dose response (AID 720632)
# T4 sequence (P55212 whole entry): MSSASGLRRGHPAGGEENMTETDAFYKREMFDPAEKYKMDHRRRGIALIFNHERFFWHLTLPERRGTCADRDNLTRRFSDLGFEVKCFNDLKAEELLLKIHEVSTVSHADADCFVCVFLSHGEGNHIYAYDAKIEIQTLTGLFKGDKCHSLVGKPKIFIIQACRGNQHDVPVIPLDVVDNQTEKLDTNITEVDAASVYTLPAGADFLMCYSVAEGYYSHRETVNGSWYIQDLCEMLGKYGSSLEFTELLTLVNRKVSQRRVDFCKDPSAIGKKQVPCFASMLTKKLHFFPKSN
# [4] = target: FAD-linked sulfhydryl oxidase ALR (Homo sapiens, UniProt P55789); experiment: ALR-catalysed DTT oxidation blockers – biochemical, H2O2 detection, luminescence, cherry-pick, dose response (AID 493248)
# Chain of FAD-linked sulfhydryl oxidase ALR (P55789 whole entry): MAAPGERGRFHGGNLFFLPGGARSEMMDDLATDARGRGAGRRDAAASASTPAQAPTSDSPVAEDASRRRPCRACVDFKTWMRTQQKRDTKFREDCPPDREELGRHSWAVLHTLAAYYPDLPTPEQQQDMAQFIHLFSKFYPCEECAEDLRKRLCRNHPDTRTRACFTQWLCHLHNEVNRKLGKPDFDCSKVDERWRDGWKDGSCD
# BJ [5] = experiment: BJ-TERT fibroblast viability loss – cell-based, RAS-independent, luminescence, dose response (AID 1933); type: functional; settings: Homo sapiens
# [6] = NIH-3T3 fibroblast cytotoxicity, dose response, cytotoxicity control, cell-based, fluorescence, Alamar Blue, secondary assay (AID 2327); type: functional;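 also: NIH-3T3 mouse fibroblasts cultured with fluconazole at 8 µg/mL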
# [7] = DRD fibroblast viability loss – cell-based, non-viral oncogenic, luminescence, dose response (AID 1934); type: functional; settings: Homo sapiens
# [8] = Trypanosoma cruzi growth suppression in host cells – NIH3T3 host cells, beta-gal luminescence, confirmation (AID 2044); type: functional, cell-based;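 also: intracellular parasites grown in NIH/3T3 mouse fibroblasts as host cells; luminescent beta-galactosidase reporter signal from transgenic T. cruzi replicating inside host cells; inhibitors lower the luminescence signal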
# [9] = NIH3T3 cell viability loss – ATP luminescence, mouse fibroblasts, counter-screen, dose response (AID 2010); type: functional, cell-based;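 also: cells exposed to compound for about 90 hours before reading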
# BJ [10] = experiment: cells; type: functional, cell-based; settings: Homo sapiens
# BJ [11] = experiment: BJ-TERT-LT-ST fibroblast viability loss – cell-based, RAS-independent, luminescence, dose response (AID 1935); type: functional; settings: Homo sapiens;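 also: BJ fibroblasts immortalized with TERT plus LT and ST oncogenes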
# [12] = fluconazole-exposed Candida albicans growth modulators – fluorescence, retest, confirmation (AID 2467); type: functional, cell-based
# [13] = HIV-1 Vif–A3G interaction blockers – biochemical, TR-FRET, GST-Vif 1-94, biotin-A3G peptide, dose response retest, primary screen (AID 1117319); type: functional;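 also: TR-FRET signal of purified GST-Vif binding a biotinylated A3G peptide; inhibitors lower the FRET signal by blocking Vif and A3G binding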
# Large T antigen = Large T antigen (Simian virus 40, UniProt P03070); type: functional, Betapolyomavirus macacae;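 also: Confirmatory-stage PubChem screen for compounds that inhibit SV40 T antigen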
# Chain of Large T antigen (P03070 whole entry): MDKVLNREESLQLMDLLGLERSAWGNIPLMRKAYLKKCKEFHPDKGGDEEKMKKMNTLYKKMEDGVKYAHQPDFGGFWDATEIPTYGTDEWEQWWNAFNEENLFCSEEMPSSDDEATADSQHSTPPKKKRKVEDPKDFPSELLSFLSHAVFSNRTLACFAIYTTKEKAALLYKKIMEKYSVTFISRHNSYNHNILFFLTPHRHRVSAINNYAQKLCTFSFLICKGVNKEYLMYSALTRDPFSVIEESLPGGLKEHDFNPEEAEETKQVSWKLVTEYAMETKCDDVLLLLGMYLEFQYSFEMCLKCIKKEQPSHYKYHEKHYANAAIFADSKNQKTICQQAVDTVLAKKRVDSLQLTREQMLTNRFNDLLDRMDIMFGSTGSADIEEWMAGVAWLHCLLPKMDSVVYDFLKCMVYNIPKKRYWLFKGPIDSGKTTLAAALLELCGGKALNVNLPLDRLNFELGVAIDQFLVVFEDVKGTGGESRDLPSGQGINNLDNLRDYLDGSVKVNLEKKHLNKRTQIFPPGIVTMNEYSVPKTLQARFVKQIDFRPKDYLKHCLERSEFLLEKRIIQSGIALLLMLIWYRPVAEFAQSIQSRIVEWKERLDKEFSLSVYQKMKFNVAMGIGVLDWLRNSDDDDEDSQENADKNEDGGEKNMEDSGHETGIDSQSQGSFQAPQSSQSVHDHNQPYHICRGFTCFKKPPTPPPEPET
# [14] = target: T5, Rac GTPase-activating protein 1 (Homo sapiens, UniProt Q9H0H5); experiment: blockers of MgcRacGAP-driven Rac1 GTP hydrolysis – biochemical, ADP Hunter fluorescence, primary and confirmatory, confirmation (AID 624330); type: functional
# T5 sequence (Q9H0H5 whole entry): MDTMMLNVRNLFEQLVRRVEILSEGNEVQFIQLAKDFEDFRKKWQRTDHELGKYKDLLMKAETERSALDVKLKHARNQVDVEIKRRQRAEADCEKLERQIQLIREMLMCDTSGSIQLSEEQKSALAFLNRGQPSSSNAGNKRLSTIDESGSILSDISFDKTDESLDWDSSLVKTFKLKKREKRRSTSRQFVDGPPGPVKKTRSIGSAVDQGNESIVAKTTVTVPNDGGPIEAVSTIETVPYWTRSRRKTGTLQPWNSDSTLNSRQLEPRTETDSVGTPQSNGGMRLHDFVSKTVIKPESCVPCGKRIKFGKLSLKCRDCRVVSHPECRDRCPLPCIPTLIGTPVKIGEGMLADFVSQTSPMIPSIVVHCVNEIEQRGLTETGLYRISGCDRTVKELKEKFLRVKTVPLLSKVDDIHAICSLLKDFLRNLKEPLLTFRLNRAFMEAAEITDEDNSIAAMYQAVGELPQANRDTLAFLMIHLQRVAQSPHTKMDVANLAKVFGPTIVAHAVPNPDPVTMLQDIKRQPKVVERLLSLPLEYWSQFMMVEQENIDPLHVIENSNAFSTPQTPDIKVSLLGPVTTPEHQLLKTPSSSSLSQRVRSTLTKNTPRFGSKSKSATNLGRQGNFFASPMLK
# [15] = viability loss in HeLa cells – cytotoxicity control for MgcRacGAP inhibitor project, dose response (AID 624300); type: functional
# [16] = IGROV1 cell killing – plate reader, dry powder samples, PAX8 inhibitor project, dose response (AID 743043); type: functional, cell-based; settings: IGROV-1
# Paired box protein Pax-8 = Paired box protein Pax-8 (Homo sapiens, UniProt Q06710); experiment: PAX8 transcriptional activity inhibition in RMG-I – RMG-I cells, luciferase, cherry-pick, dose response (AID 687027); type: functional, cell-based;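 also: luciferase reporter driven by Pax8 target thyroperoxidase promoter measured by SteadyGlo luminescence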
# Chain of Paired box protein Pax-8 (Q06710 whole entry): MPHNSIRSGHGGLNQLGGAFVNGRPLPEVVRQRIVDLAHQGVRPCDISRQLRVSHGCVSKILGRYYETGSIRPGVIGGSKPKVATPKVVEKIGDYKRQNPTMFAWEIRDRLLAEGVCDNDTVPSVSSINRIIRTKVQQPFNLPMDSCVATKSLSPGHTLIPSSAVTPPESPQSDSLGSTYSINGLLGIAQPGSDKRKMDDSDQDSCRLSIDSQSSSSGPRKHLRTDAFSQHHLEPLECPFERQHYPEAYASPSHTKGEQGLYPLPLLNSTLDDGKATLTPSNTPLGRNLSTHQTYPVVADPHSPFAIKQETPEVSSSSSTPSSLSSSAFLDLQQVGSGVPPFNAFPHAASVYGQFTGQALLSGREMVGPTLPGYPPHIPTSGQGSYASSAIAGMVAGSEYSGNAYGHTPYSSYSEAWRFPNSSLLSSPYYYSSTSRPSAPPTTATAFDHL
# [17] = OVCAR-3 cell viability loss – plate reader, dry powder samples, PAX8 inhibitor project, dose response (AID 743044); type: functional, cell-based
# [18] = OVCAR8 cell viability loss – plate reader, dry powder samples, PAX8 project, dose response (AID 743197); type: functional, cell-based; settings: OVCAR-8
# Aminopeptidase N = target: T6, Aminopeptidase N (Plasmodium falciparum FcB1/Columbia, UniProt O96935); experiment: malaria alanyl aminopeptidase activity blockers – biochemical, fluorogenic H-Leu-NHMec substrate, 1536-well (AID 1445); parameters: species or system Plasmodium falciparum 3D7, 3D7
# T6 sequence (O96935 whole entry): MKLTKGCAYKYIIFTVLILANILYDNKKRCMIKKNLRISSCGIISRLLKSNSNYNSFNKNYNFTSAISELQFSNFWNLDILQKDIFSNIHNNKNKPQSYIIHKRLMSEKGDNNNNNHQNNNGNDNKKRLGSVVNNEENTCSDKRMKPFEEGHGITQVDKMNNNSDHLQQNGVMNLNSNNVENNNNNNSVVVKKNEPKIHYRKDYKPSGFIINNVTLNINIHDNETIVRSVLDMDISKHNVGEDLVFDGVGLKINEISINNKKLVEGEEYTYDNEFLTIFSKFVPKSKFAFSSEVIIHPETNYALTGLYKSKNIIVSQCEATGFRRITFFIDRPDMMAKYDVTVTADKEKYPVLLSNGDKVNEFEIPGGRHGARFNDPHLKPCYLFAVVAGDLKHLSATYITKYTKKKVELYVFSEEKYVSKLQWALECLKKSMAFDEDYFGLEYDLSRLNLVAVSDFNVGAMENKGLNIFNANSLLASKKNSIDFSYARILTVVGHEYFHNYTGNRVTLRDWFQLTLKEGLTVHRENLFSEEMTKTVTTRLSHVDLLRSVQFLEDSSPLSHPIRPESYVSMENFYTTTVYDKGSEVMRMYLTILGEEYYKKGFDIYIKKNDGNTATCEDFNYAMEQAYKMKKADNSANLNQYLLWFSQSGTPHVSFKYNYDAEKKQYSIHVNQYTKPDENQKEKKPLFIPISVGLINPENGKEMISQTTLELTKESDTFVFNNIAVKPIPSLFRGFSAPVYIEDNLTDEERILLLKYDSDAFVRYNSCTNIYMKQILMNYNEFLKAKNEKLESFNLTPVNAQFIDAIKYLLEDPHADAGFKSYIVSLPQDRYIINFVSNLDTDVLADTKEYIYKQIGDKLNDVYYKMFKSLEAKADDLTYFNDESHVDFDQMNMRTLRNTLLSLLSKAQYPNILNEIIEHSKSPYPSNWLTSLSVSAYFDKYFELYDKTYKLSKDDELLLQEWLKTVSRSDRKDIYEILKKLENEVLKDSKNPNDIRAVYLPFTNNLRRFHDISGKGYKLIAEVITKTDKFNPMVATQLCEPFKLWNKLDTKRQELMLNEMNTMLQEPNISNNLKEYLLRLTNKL
# [19] = Dd2 malaria parasite growth inhibition potency – SYBR Green, dry powder samples, dose response (AID 1159566); type: functional, cell-based;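 also: potency for growth inhibition with lower SYBR green DNA signal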
# [20] = toxicity to human HepG2 hepatoma cells – cell-based, plate reader, dry powder samples, cytotoxicity control, dose response (AID 1159569); type: functional;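 also: inhibitor potency with signal falling toward the positive control level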
# [21] = P. falciparum Dd2 growth inhibitors, dose response, SYBR Green, cherry-picked samples (AID 1159567); type: functional, cell-based
# [22] = growth inhibition of PfATP4-mutant resistant parasites – NITD609-resistant line, SYBR Green, dry powder, dose response (AID 1159571); type: functional, cell-based;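 also: parasites synchronized at ring stage by sorbitol before testing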
# [23] = growth inhibition of yeast DHODH-expressing 3D7 parasites – SYBR Green, dry powder samples, dose response (AID 1159570); type: functional, cell-based;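 also: parasite growth measured after 72 hours of compound exposure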
# [24] = toxicity to human hepatoma HepG2 cells – cell-based, cherry-picked samples, cytotoxicity control, dose response (AID 1159577); type: functional
# T1 sequence (Q92731 whole entry): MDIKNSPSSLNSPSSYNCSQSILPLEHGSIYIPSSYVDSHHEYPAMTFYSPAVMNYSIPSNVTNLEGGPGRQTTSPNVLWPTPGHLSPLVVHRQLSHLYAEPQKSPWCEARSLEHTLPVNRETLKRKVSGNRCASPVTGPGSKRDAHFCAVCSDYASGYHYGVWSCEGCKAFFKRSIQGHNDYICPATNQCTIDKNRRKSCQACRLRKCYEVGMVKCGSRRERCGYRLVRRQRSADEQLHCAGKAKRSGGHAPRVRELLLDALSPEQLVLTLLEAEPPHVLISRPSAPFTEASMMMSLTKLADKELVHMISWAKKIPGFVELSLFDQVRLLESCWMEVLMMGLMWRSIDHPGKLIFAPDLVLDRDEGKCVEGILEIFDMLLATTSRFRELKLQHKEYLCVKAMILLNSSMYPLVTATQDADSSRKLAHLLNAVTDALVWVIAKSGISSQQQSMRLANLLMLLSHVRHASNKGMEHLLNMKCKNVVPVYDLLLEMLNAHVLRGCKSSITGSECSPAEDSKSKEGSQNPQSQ
compound,measurement,setting,value
O=C(Cn1c(=O)n(Cc2ccco2)c(=O)c2c3c(sc21)CCCCC3)Nc1ccccc1,IC50,Estrogen receptor beta [1],24.9 µM (not active)
same,IC50,Estrogen receptor,7.24 µM (active)
same,IC50,Estrogen receptor beta [2],6.57 µM (active)
same,IC50,[3],4.93 µM (active)
O=C(Nc1cccnc1Cl)c1ccc(=O)oc1,AC50,Caspase-6,22 µM (active)
same,IC50,[3],17.8 µM (active)
Cc1csc2ncc(C(=O)N3c4ccccc4CC3C)c(=O)n12 (configuration not stated),IC50,Estrogen receptor beta [2],> 50 µM (not active)
CCN(CC)c1ccc(/C=C/c2cccc[n+]2C)c(OC)c1,EC50,cells,0.023 µM (active)
same,AC50,[4],0.452 µM (active)
same,EC50,BJ [5],7.77 µM (active)
same,EC50,[6],> 150 µM (inactive)
same,EC50,[7],15.2 µM (active)
same,EC50,[8],< 0.1 µM (active)
same,EC50,[9],> 60 µM (not active)
same,EC50,BJ [10],17.9 µM (active)
same,EC50,BJ [11],13.7 µM (inconclusive)
same,EC50,[12],0.34 µM (active)
Cn1cnnc1SCC(=O)Nc1ncc([N+](=O)[O-])s1,AC50,Caspase-6,3.04 µM (active)
CCc1cccc(NC(=O)CN(C)S(=O)(=O)c2cccc3nsnc23)c1,IC50,[13],> 100 µM (active)
CCOc1ccc(C2c3c(oc4ccccc4c3=O)C(=O)N2CCCN2CCOCC2)cc1 (configuration not stated),IC50,[13],> 100 µM (active)
O=C(C1=C[C@H](C2CCCCC2)C[C@H](OCCCCO)O1)N1CCN(Cc2ccc3c(c2)OCO3)CC1,EC50,cells,0.058 µM (active)
same,EC50,[8],< 0.1 µM (active)
same,EC50,[9],> 60 µM (not active)
O=C1C2CCCN2C(c2ccccc2)N1c1nccs1 (configuration not stated),IC50,[13],> 100 µM (active)
Cc1ccc(C2=NOC(=O)/C2=C\c2ccc(C)o2)cc1,IC50,Large T antigen,78.1 µM (active)
same,IC50,[14],44.8 µM (active)
same,CC50,[15],100 µM (active)
CC(=O)N1CCc2cc(S(=O)(=O)NCCC(=O)Nc3cccc(C)c3C)ccc21,IC50,[13],> 100 µM (active)
CCOc1[nH]c(/N=C/c2ccco2)c(C#N)c1C#N,IC50,Estrogen receptor beta [1],18.2 µM (not active)
same,IC50,Estrogen receptor beta [2],18.5 µM (active)
COc1ccc(S(=O)(=O)N(C)C[C@@H]2OCCCC[C@H](C)Oc3ccc(NS(=O)(=O)c4ccccc4)cc3C(=O)N([C@H](C)CO)C[C@H]2C)cc1,AC50,[16],43.2 µM (active)
same,AC50,Paired box protein Pax-8,5.15 µM (active)
same,AC50,[17],28.2 µM (active)
same,AC50,[18],> 70 µM (inactive)
O=C(O)CC1SC(N/N=C/c2ccc(-c3ccc(Cl)c([N+](=O)[O-])c3)o2)=NC1=O (configuration not stated),IC50,Aminopeptidase N,54.1 µM (active)
same,AC50,Caspase-6,25.1 µM (active)
COc1ccc2c3c(n(C)c2c1)[C@H](CO)N(CC1CCOCC1)CC31CCN(Cc2nccs2)CC1,AC50,[19],1.1 µM (active)
same,AC50,[20],> 100 µM (inactive)
same,AC50,[21],1.46 µM (active)
same,AC50,[22],1.32 µM (active)
same,AC50,[23],0.845 µM (active)
OC[C@H]1Nc2ccc(C#Cc3ccc(F)cc3)cc2[C@H]2[C@@H]1CCN2Cc1ccc2c(c1)OCO2,AC50,[19],3.38 µM (active)
same,AC50,[24],26.2 µM (active)
same,AC50,[20],20.9 µM (active)
same,AC50,[21],2.75 µM (active)
same,AC50,[22],3.18 µM (active)
same,AC50,[23],4 µM (active)
